Measurements published in patent US9328085B2, “Heterocyclic compounds and expansion agents for hematopoietic stem cells” (NISSAN CHEMICAL INDUSTRIES, LTD., priority 2009, dated 2016).

Key:
[1] = test system: CD34^+CD38^− cells; assay: Expansion of CD34+CD38- cells using human cord blood-derived CD34+ cells (Assay Example 1); assay type: cell-based; conditions: for Expansion efficiency (CD34^+CD38^− cells): 100 ng/mL SCF, 7 days, based on the number of CD34^+CD38^− cells in the absence of compound; for Comparison with TPO: CD34^+CD38^− cells
Experimental: (§1) Human cord blood-derived CD34^+ cells were purchased from Lonza and plated on a 24-well plate (Corning) (10000 cells/1 mL/well). As the culture medium, StemSpan SFEM (StemCell Technologies) containing 100 ng/mL SCF (Wako Pure Chemical Industries) was used, and one of Compounds No. 1 to 72 dissolved in dimethyl sulfoxide was added in an amount of 0.1% (v/v) to a final concentration of 1 or 3 μg/mL. As a positive control, TPO (PeproTech) was used at a final concentration of 10 ng/mL.
(§2) After the cells were incubated in liquid culture at 37° C. for 7 days in a CO2 incubator (5% CO2), the number of viable cells was counted by trypan blue assay. The number of CD34^+CD38^− cells was calculated as follows. After the incubation, the cells in the liquid culture was stained with a CD34 antibody (APC, Becton, Dickinson and Company) and a CD38 antibody (PE, Becton, Dickinson and Company), then washed with PBS(−) containing 2% (v/v) FBS and stained with propidium iodide (Sigma-Aldrich Japan) added to a final concentration of 5 μg/mL. The stained cells were analyzed with a BD FACSCANTO™ II flow cytometer (Becton, Dickinson and Company) to determined the proportions of CD34^+ cells and CD34^+CD38^− cells, which was multiplied by the number of viable cells to calculate the numbers of CD34^+ cells and CD34^+CD38^− cells.
(§3) The expansion efficiencies in the presence of 1 or 3 μg/mL of compounds based on the number of CD34^+ cells in the absence of them are shown in Tables 3-1 and 3-2 on a scale of A for expansion efficiencies of 6 or greater, B for expansion efficiencies of at least 4 and less than 6, and C for expansion efficiencies of at least 2 and less than 4. The expansion efficiencies in the presence of 1 or 3 μg/mL of compounds based on the number of CD34^+CD38^− cells in the absence of them are shown in Tables 4-1 and 4-2 on a scale of A for expansion efficiencies of 10 or greater, B for expansion efficiencies of at least 5 and less than 10, and C for expansion efficiencies of at least 3 and less than 5. Further, in Table 3, the compounds with an expansion efficiency twice or more greater than that of TPO are marked with O.

[2] = test system: CD34^+ cells; assay: Expansion of CD34+ cells using human cord blood-derived CD34+ cells (Assay Example 1); assay type: cell-based; conditions: 100 ng/mL SCF, 7 days, based on the number of CD34^+ cells in the absence of compound
Experimental: as §1, §2, §3

[3] = 3 μg/mL compound vs TPO 10 ng/mL

SMILES: CC(=O)NCc1ccc(CNC(=O)c2ccc(C(=O)NN=C(C)c3csc(-c4ccc(C(C)(C)C)cc4)c3O)s2)cc1 [compound 53]
- Expansion efficiency (CD34^+CD38^− cells) ([1]; 1 μg/mL compound): B (B for expansion efficiencies of at least 5 and less than 10)
- Expansion efficiency (CD34^+ cells) ([2]; 1 μg/mL compound): C (C for expansion efficiencies of at least 2 and less than 4)

SMILES: CCCCOCCOCCNC(=O)c1ccc(CNC(=O)c2ccc(C(=O)NN=C(C)c3csc(-c4ccc(Cl)c(Cl)c4)c3O)s2)cc1 [compound 34]
- Expansion efficiency (CD34^+CD38^− cells) ([1]; 3 μg/mL compound): B (B for expansion efficiencies of at least 5 and less than 10)
- Expansion efficiency (CD34^+ cells) ([2]; 3 μg/mL compound): C (C for expansion efficiencies of at least 2 and less than 4)

SMILES: CC(=NNC(=O)c1ccc(C(=O)NCc2ccc(C(=O)NCCN3CCNCC3)cc2)s1)c1csc(-c2ccc(Cl)c(Cl)c2)c1O [compound 28]
- Expansion efficiency (CD34^+CD38^− cells) ([1]; 3 μg/mL compound): A (A for expansion efficiencies of 10 or greater)
- Expansion efficiency (CD34^+ cells) ([2]; 3 μg/mL compound): B (B for expansion efficiencies of at least 4 and less than 6)

SMILES: CC(=O)NCc1ccc(CNC(=O)c2ccc(C(=O)NN=C(C)c3csc(-c4ccc(C(F)(F)F)cc4)c3O)s2)cc1 [compound 55]
- Expansion efficiency (CD34^+CD38^− cells) ([1]; 1 μg/mL compound): A (A for expansion efficiencies of 10 or greater)
- Expansion efficiency (CD34^+ cells) ([2]; 1 μg/mL compound): A (A for expansion efficiencies of 6 or greater)

SMILES: COCCOCCNC(=O)c1ccc(CNC(=O)c2ccc(C(=O)NN=C(C)c3csc(-c4ccc(Br)cc4)c3O)s2)cc1 [compound 33]
- Comparison with TPO [1, 3]: ∘
- Expansion efficiency (CD34^+CD38^− cells) ([1]; 3 μg/mL compound): A (A for expansion efficiencies of 10 or greater)
- Expansion efficiency (CD34^+ cells) ([2]; 3 μg/mL compound): A (A for expansion efficiencies of 6 or greater)

SMILES: CC(=NNC(=O)c1ccc(C(=O)NCc2ccc(C(=O)NCc3ccco3)cc2)s1)c1csc(-c2ccc(C(C)(C)C)cc2)c1O [compound 8]
- Expansion efficiency (CD34^+CD38^− cells) ([1]; 3 μg/mL compound): B (B for expansion efficiencies of at least 5 and less than 10)

SMILES: CC(=NNC(=O)c1ccc(C(=O)NCc2ccc(C(=O)NCCOCCO)cc2)s1)c1csc(-c2ccc(C(F)(F)F)cc2)c1O [compound 62]
- Comparison with TPO [1, 3]: ∘
- Expansion efficiency (CD34^+CD38^− cells) ([1]; 3 μg/mL compound): A (A for expansion efficiencies of 10 or greater)
- Expansion efficiency (CD34^+ cells) ([2]; 3 μg/mL compound): A (A for expansion efficiencies of 6 or greater)

SMILES: COc1ccc(-c2scc(C(C)=NNC(=O)c3ccc(C(=O)NCc4ccc(CNC(C)=O)cc4)s3)c2O)cc1 [compound 58]
- Expansion efficiency (CD34^+CD38^− cells) ([1]; 1 μg/mL compound): A (A for expansion efficiencies of 10 or greater)
- Expansion efficiency (CD34^+ cells) ([2]; 1 μg/mL compound): B (B for expansion efficiencies of at least 4 and less than 6)

SMILES: CC(=NNC(=O)c1ccc(C(=O)NCc2ccc(C(=O)NCCOCCO)cc2)nc1)c1csc(-c2ccc(C(C)(C)C)cc2)c1O [compound 47]
- Expansion efficiency (CD34^+CD38^− cells) ([1]; 3 μg/mL compound): B (B for expansion efficiencies of at least 5 and less than 10)

SMILES: CC(=NNC(=O)c1ccc(C(=O)NCc2ccc(C(=O)NCCOCCO)cc2)s1)c1csc(-c2ccc(OC(F)(F)F)cc2)c1O [compound 64]
- Comparison with TPO ([1]; 1 μg/mL compound vs TPO 10 ng/mL): ∘
- Expansion efficiency (CD34^+CD38^− cells) ([1]; 1 μg/mL compound): A (A for expansion efficiencies of 10 or greater)
- Expansion efficiency (CD34^+ cells) ([2]; 1 μg/mL compound): A (A for expansion efficiencies of 6 or greater)

SMILES: CC(=O)NCc1ccc(CNC(=O)c2ccc(C(=O)NN=C(C)c3csc(-c4ccc(Cl)cc4)c3O)s2)cc1 [compound 56]
- Expansion efficiency (CD34^+CD38^− cells) ([1]; 1 μg/mL compound): A (A for expansion efficiencies of 10 or greater)
- Expansion efficiency (CD34^+ cells) ([2]; 1 μg/mL compound): A (A for expansion efficiencies of 6 or greater)

SMILES: COCCOCCNC(=O)c1ccc(CNC(=O)c2ccc(C(=O)NN=C(C)c3csc(-c4ccc(Cl)c(Cl)c4)c3O)s2)cc1 [compound 31]
- Expansion efficiency (CD34^+CD38^− cells) ([1]; 3 μg/mL compound): A (A for expansion efficiencies of 10 or greater)
- Expansion efficiency (CD34^+ cells) ([2]; 3 μg/mL compound): C (C for expansion efficiencies of at least 2 and less than 4)

SMILES: CC(=NNC(=O)c1ccc(C(=O)NCc2ccc(C(=O)NCCN3CCOCC3)cc2)s1)c1csc(-c2ccc(C(C)(C)C)cc2)c1O [compound 20]
- Comparison with TPO [1, 3]: ∘
- Expansion efficiency (CD34^+CD38^− cells) ([1]; 3 μg/mL compound): A (A for expansion efficiencies of 10 or greater)
- Expansion efficiency (CD34^+ cells) ([2]; 3 μg/mL compound): B (B for expansion efficiencies of at least 4 and less than 6)

SMILES: CC(=NNC(=O)c1ccc(C(=O)NCc2ccc(CC(N)=O)cc2)s1)c1csc(-c2ccc(Br)cc2)c1O [compound 68]
- Comparison with TPO [1, 3]: ∘
- Expansion efficiency (CD34^+CD38^− cells) ([1]; 3 μg/mL compound): A (A for expansion efficiencies of 10 or greater)
- Expansion efficiency (CD34^+ cells) ([2]; 3 μg/mL compound): A (A for expansion efficiencies of 6 or greater)

SMILES: CC(=O)NCc1ccc(CNC(=O)c2ccc(C(=O)NN=C(C)c3csc(-c4ccc(Cl)c(Cl)c4)c3O)s2)cc1 [compound 52]
- Expansion efficiency (CD34^+CD38^− cells) ([1]; 1 μg/mL compound): A (A for expansion efficiencies of 10 or greater)
- Expansion efficiency (CD34^+ cells) ([2]; 1 μg/mL compound): A (A for expansion efficiencies of 6 or greater)

SMILES: CC(=NNC(=O)c1ccc(C(=O)NCc2ccc(C(=O)NCCN(CCO)CCO)cc2)s1)c1csc(-c2ccc(Br)cc2)c1O [compound 24]
- Comparison with TPO [1, 3]: ∘
- Expansion efficiency (CD34^+CD38^− cells) ([1]; 3 μg/mL compound): A (A for expansion efficiencies of 10 or greater)
- Expansion efficiency (CD34^+ cells) ([2]; 3 μg/mL compound): A (A for expansion efficiencies of 6 or greater)

SMILES: CC(=NNC(=O)c1ccc(C(=O)NCc2ccc(CC(N)=O)cc2)s1)c1csc(-c2ccc(OC(F)(F)F)cc2)c1O [compound 71]
- Expansion efficiency (CD34^+CD38^− cells) ([1]; 3 μg/mL compound): A (A for expansion efficiencies of 10 or greater)
- Expansion efficiency (CD34^+ cells) ([2]; 3 μg/mL compound): A (A for expansion efficiencies of 6 or greater)

SMILES: CC(=NNC(=O)c1cccc(C(=O)NCc2ccc(C(=O)NCCOCCO)cc2)n1)c1csc(-c2ccc(C(C)(C)C)cc2)c1O [compound 50]
- Expansion efficiency (CD34^+CD38^− cells) ([1]; 3 μg/mL compound): C (C for expansion efficiencies of at least 3 and less than 5)

SMILES: CC(=NNC(=O)c1ccc(C(=O)NCc2ccc(CC(N)=O)cc2)s1)c1csc(-c2ccc(Cl)c(Cl)c2)c1O [compound 66]
- Expansion efficiency (CD34^+CD38^− cells) ([1]; 3 μg/mL compound): A (A for expansion efficiencies of 10 or greater)
- Expansion efficiency (CD34^+ cells) ([2]; 3 μg/mL compound): C (C for expansion efficiencies of at least 2 and less than 4)

SMILES: CC(=NNC(=O)c1ccc(C(=O)NCc2ccc(C(=O)NCCN(CCO)CCO)cc2)s1)c1csc(-c2ccc(C(C)(C)C)cc2)c1O [compound 23]
- Comparison with TPO [1, 3]: ∘
- Expansion efficiency (CD34^+CD38^− cells) ([1]; 3 μg/mL compound): A (A for expansion efficiencies of 10 or greater)
- Expansion efficiency (CD34^+ cells) ([2]; 3 μg/mL compound): A (A for expansion efficiencies of 6 or greater)

SMILES: CC(=NNC(=O)c1ccc(C(=O)NCc2ccc(C(=O)NCCN3CCNCC3)cc2)s1)c1csc(-c2ccc(C(C)(C)C)cc2)c1O [compound 29]
- Comparison with TPO [1, 3]: ∘
- Expansion efficiency (CD34^+CD38^− cells) ([1]; 3 μg/mL compound): A (A for expansion efficiencies of 10 or greater)
- Expansion efficiency (CD34^+ cells) ([2]; 3 μg/mL compound): A (A for expansion efficiencies of 6 or greater)

SMILES: CC(=NNC(=O)c1ccc(C(=O)NCc2ccc(C(=O)NCC3CCCO3)cc2)s1)c1csc(-c2ccc(Br)cc2)c1O (stereo not drawn) [compound 12]
- Expansion efficiency (CD34^+CD38^− cells) ([1]; 3 μg/mL compound): A (A for expansion efficiencies of 10 or greater)
- Expansion efficiency (CD34^+ cells) ([2]; 3 μg/mL compound): A (A for expansion efficiencies of 6 or greater)

SMILES: CC(=NNC(=O)c1ccc(C(=O)NCc2ccc(C(=O)NCc3ccccn3)cc2)s1)c1csc(-c2ccc(Br)cc2)c1O [Compound No. 6]
- Expansion efficiency (CD34^+CD38^− cells) ([1]; 3 μg/mL compound): C (C for expansion efficiencies of at least 3 and less than 5)

SMILES: CC(=NNC(=O)c1ccc(C(=O)NCc2ccc(C(=O)NCCN3CCN(C(=O)OC(C)(C)C)CC3)cc2)s1)c1csc(-c2ccc(Br)cc2)c1O [compound 27]
- Expansion efficiency (CD34^+CD38^− cells) ([1]; 3 μg/mL compound): C (C for expansion efficiencies of at least 3 and less than 5)
